Results on five compounds are retold here after US20240158446A1, “CYCLIC COMPOUND HAVING SELECTIVE INHIBITORY ACTION ON KRAS OVER HRAS AND NRAS” (CHUGAI SEIYAKU KABUSHIKI KAISHA, priority 2021, published 2024).

In assay [1] the target is GDP-bound KRAS wild-type protein (Homo sapiens, UniProt P01116). Description: Binding to KRAS by surface plasmon resonance (SPR), Single Cycle Kinetics. Particulars: SPR, Single Cycle Kinetics, GDP-bound KRAS wild-type protein; read-out: KRAS KD.
The target in assay [2] is GDP-bound HRAS wild-type protein (Homo sapiens, UniProt P01112). Briefly: Binding to HRAS by surface plasmon resonance (SPR), Single Cycle Kinetics. To be noted: SPR, GDP-bound HRAS wild-type protein vs GDP-bound KRAS wild-type protein.
Assay [3] has as its target GDP-bound NRAS wild-type protein (Homo sapiens, UniProt P01111). Briefly: Binding to NRAS by surface plasmon resonance (SPR), Single Cycle Kinetics. To be noted: SPR, GDP-bound NRAS wild-type protein vs GDP-bound KRAS wild-type protein.
Assay [4] has as its system human lung cancer strain NCI-H441.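 Also: cell proliferation inhibition after four days measured by CellTiter-Glo.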

Sequence of GDP-bound HRAS wild-type protein (P01112 whole entry): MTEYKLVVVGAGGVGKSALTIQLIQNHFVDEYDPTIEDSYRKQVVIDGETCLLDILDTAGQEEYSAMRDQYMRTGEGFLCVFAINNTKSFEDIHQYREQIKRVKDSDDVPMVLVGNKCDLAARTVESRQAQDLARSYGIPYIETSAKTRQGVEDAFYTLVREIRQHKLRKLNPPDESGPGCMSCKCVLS
Sequence of GDP-bound KRAS wild-type protein (P01116 whole entry): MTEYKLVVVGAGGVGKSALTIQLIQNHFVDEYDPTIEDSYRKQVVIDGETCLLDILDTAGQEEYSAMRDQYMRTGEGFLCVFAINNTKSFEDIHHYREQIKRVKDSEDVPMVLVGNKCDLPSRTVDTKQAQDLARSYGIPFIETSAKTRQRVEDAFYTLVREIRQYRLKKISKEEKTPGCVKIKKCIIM
Sequence of GDP-bound NRAS wild-type protein (P01111 whole entry): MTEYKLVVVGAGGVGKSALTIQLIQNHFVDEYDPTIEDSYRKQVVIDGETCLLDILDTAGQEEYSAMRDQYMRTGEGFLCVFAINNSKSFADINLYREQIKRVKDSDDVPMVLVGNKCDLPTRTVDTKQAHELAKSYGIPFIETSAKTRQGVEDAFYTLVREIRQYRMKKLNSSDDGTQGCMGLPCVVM

For `CCCOC[C@H]1C(=O)N[C@@H]([C@@H](C)CC)C(=O)N(C)CC(=O)N(C)[C@H]2C/C=C\CCN(C2=O)[C@@H](CC2CCC(F)(F)CC2)C(=O)N(C)CC(=O)N[C@@H](CCc2cc(F)c(C(F)(F)F)c(F)c2)C(=O)N2C[C@H](OCC)C[C@H]2C(=O)NC2(CC(C)(C)C2)C(=O)N(C)[C@@H](C(CC)CC)C(=O)N(C)[C@H](C(=O)N(C)C)CC(=O)N1C` [PP2472], the Kd in assay [1] was 0.00058 µM. Besides, in assay [2], the “HRAS/KRAS (ratio of KD value for HRAS to KD value for KRAS)” value was “A (a compound having 10 or more and less than 20 is denoted as A)”. In assay [3], the “NRAS/KRAS (ratio of KD value for NRAS to KD value for KRAS)” value is “A (a compound having 10 or more and less than 20 is denoted as A)”. In assay [4], this compound came in with a half-inhibitory concentration (IC50) of 0.0423 µM.

As for `CCOC[C@H]1C(=O)N[C@@H]([C@@H](C)CC)C(=O)N(C)CC(=O)N(C)[C@H]2C/C=C\CCN(C2=O)[C@@H](CC2CCC(F)(F)CC2)C(=O)N(C)CC(=O)N[C@@H](CCc2ccc(C(F)(F)F)c(Cl)c2)C(=O)N2C[C@@H](C)C[C@H]2C(=O)NC2(CC(C)(C)C2)C(=O)N(C)[C@@H](C(CC)CC)C(=O)N(C)[C@H](C(=O)N(C)C)CC(=O)N1C` [PP2475], the Kd in assay [1] turned out to be 0.0015 µM. For the same compound, in assay [2], the “HRAS/KRAS (ratio of KD value for HRAS to KD value for KRAS)” value was “A (a compound having 10 or more and less than 20 is denoted as A)”. Besides, in assay [3], the “NRAS/KRAS (ratio of KD value for NRAS to KD value for KRAS)” value is recorded as “AA (a compound having 20 or more is denoted as AA)”. The midpoint of inhibition in assay [4], the IC50, lay at 0.176 µM.

On to `CCO[C@@H]1C[C@H]2C(=O)NC3(CC(C)(C)C3)C(=O)N(C)[C@@H](C(CC)CC)C(=O)N(C)[C@H](C(=O)N(C)C)CC(=O)N(C)[C@@H](C(C)C)C(=O)N[C@@H]([C@@H](C)CC)C(=O)N(C)CC(=O)N(C)[C@H]3C/C=C\CCN(C3=O)[C@@H](CC3CCC(F)(F)CC3)C(=O)N(C)CC(=O)N[C@@H](CCc3ccc(C(F)(F)F)c(OC)c3)C(=O)N2C1` [PP2477], for which the dissociation constant (Kd) in assay [1] turned out to be 0.0018 µM. The “HRAS/KRAS (ratio of KD value for HRAS to KD value for KRAS)” value in assay [2] was “A (a compound having 10 or more and less than 20 is denoted as A)”. Besides, the “NRAS/KRAS (ratio of KD value for NRAS to KD value for KRAS)” value in assay [3] was “A (a compound having 10 or more and less than 20 is denoted as A)”. In addition, in assay [4], the IC50 is 0.127 µM.

Turning to `CCOC[C@H]1C(=O)N[C@@H]([C@@H](C)CC)C(=O)N(C)CC(=O)N(C)[C@H]2C/C=C\CCN(C2=O)[C@@H](CC2CCCCC2)C(=O)N(C)CC(=O)N[C@@H](CCc2cc(F)c(C(F)(F)F)c(F)c2)C(=O)N2C[C@H](OCC)C[C@H]2C(=O)NC2(CC(C)(C)C2)C(=O)N(C)[C@@H](C(CC)CC)C(=O)N(C)[C@H](C(=O)N(C)C)CC(=O)N1C` [PP2479], in assay [1], the Kd worked out at 0.0014 µM. Also, in assay [2], the “HRAS/KRAS (ratio of KD value for HRAS to KD value for KRAS)” value was “A (a compound having 10 or more and less than 20 is denoted as A)”. Also, in assay [3], the “NRAS/KRAS (ratio of KD value for NRAS to KD value for KRAS)” value is “AA (a compound having 20 or more is denoted as AA)”. In assay [4], the concentration for half-maximal inhibition (IC50) amounted to 0.026 µM.

Take `CCO[C@@H]1C[C@H]2C(=O)NC3(CC(C)(C)C3)C(=O)N(C)[C@@H](C(CC)CC)C(=O)N(C)[C@H](C(=O)N(C)C)CC(=O)N(C)[C@@H](CC3CC3)C(=O)N[C@@H]([C@@H](C)CC)C(=O)N(C)CC(=O)N(C)[C@H]3C/C=C\CCN(C3=O)[C@@H](CC3CCC(F)(F)CC3)C(=O)N(C)CC(=O)N[C@@H](CCc3ccc(C(F)(F)F)c(OC)c3)C(=O)N2C1` [PP2480]: the dissociation constant (Kd) in assay [1] came to 0.00084 µM. Further, the “HRAS/KRAS (ratio of KD value for HRAS to KD value for KRAS)” value in assay [2] was “A (a compound having 10 or more and less than 20 is denoted as A)”. Moreover, the “NRAS/KRAS (ratio of KD value for NRAS to KD value for KRAS)” value in assay [3] is “A (a compound having 10 or more and less than 20 is denoted as A)”. For the same compound, the half-maximal inhibitory concentration (IC50) in assay [4] came to 0.0305 µM.
